Results on five compounds are retold here after publication PMC11966747, “Next Generation Risk Assessment of Acute Neurotoxicity from Organophosphate Exposures Using the In Vitro–In Silico Derived Dietary Comparator Ratio” (Environmental Science & Technology, 2025).

Each structure is given as a SMILES string. Read-outs that look alike come from different tables or passages of the source.

For data set [1] the following is noted: QSAR-based prediction; ref Punt et al. 2022; Moerenhout et al. 2024; cited from earlier work.
In data set [2] the target is T1, erythrocyte AChE (Homo sapiens, UniProt P22303). The settings on record: cited from earlier work; for reported or expected adverse health outcome: ref Table S2.
T1 sequence (P22303 32-617 isoform P22303-2 limits assumed): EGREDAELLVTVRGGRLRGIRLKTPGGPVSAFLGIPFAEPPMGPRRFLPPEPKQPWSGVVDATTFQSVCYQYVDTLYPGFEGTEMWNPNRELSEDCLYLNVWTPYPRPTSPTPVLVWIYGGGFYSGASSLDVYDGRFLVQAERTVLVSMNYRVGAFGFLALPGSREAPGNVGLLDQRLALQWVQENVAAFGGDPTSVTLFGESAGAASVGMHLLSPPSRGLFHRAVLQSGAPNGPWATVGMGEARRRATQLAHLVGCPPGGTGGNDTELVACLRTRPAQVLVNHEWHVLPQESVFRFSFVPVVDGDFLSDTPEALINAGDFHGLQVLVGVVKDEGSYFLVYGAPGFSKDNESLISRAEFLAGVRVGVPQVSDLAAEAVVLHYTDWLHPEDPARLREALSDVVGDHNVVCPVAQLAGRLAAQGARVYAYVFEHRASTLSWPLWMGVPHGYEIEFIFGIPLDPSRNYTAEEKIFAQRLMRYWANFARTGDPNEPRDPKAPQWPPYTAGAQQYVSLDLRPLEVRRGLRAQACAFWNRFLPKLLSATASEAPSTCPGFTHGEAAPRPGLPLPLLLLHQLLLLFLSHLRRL
For data set [3], the target named is T1, erythrocyte AChE. In words: Exposure Activity Ratio (EAR) and Dietary Comparator Ratio (DCR) calculation. Details: from tissue; host or cells: human whole peripheral blood (erythrocytes), K2EDTA anticoagulant. The settings on record: for calculated DCR value / calculated EARtest value: human. As to the method: The DCR value for an exposure scenario was calculated as the ratio of EARtest and EARcomparator (eq 1). The EARtest is scenario-specific and was defined with the IC50 of the tested organophosphate oxon for in vitro erythrocyte AChE inhibition and the PBK model-simulated CBmaxoxon at the defined exposure level (eq 2).
The DCR-based predictions were evaluated by comparing the obtained DCR results with actual knowledge of the adverse health effects reported for the respective exposure scenarios. Adverse effects cannot be ruled out for human exposure scenarios with a DCR result greater than 1, while exposure scenarios with a DCR result less than or equal to 1 are considered to raise no safety concern.[18]−[20] Once validated as an adequate predicting tool, the DCR approach was applied for evaluating the safety of exposure scenarios, for which no information on the resulting toxic outcomes was reported at the defined dose levels for humans.

Data set [4] deals with T1, erythrocyte AChE. Nature of the data set: biochemical. The data set is classed as biochemical. Details: from tissue; host or cells: human whole peripheral blood (erythrocytes), K2EDTA anticoagulant. As for the experimental part: Ethanol (UPLC/MS grade) was ordered from Biosolve (Valkenswaard, The Netherlands). Ultrapure water used for experiments was prepared with a Sartorius Arium Pro ultrapure water system (Göttingen, Germany). Human whole peripheral blood with K2EDTA as an anticoagulant was used for the in vitro AChE inhibition assay. K2EDTA acts as an inhibitor to the paraoxonase 1 (PON1) enzyme,[23] preventing the underestimation of the inhibition potential of organophosphate oxons due to the nontarget clearance by PON1 present in the blood samples.
Inhibition of erythrocyte AChE by the organophosphate oxon or the corresponding oxon metabolite of an organothiophosphate was measured in vitro using the method previously described.[12] The ethanolic stock solution of the test oxon was first diluted 100 times with sodium phosphate buffer (100 mM, pH 7.4), and 10 μL of the diluted solution was added to 90 μL of human whole blood sample in a 48-wells flat-bottom transparent plate (Greiner Bio-One, The Netherlands). After a 30 min incubation at room temperature, the blood samples were then diluted 20 times with ultrapure water containing 0.03% Triton-X 100 (v/v), and 20 μL of the Triton-diluted blood was incubated for 20 min following the addition of 460 μL of DTNB and 20 μL of ethopropazine (an inhibitor to plasma butyrylcholinesterase (BuChE)). After that, 100 μL of ATC was added (final concentrations of ethopropazine, DTNB, and ATC were 20 μM, 1 mM, and 1 mM, respectively), and the absorbance at 436 nm was measured continuously to detect the remaining AChE activity. Controls were carried out by replacing the test compound with sodium phosphate buffer to correct for any background absorbance.
The benchmark response (BMR) of 5% for erythrocyte AChE inhibition is a conservative end point for deriving an effect level, since regulatory bodies usually use a higher BMR (i.e., 10% or 20%) for risk assessment of acute OP pesticide exposure.[24],[25] The European Food Safety Authority (EFSA) Web tool (https://efsa.openanalytics.eu/) integrated with the R package PROAST (version 70.0) was employed for the BMC analysis (see Supporting Information).

Where [5] appears, read: 1 mg/kg BW single oral, a volunteer, ref APVMA. 2000 (original data of Brown. 1966).
[6] abbreviates: human whole blood, BMC analysis, PROAST model averaging.

For the compound `CCOP(=O)(OCC)OC(=CCl)c1ccc(Cl)cc1Cl` [chlorfenvinphos], in data set [1], the “Oral absorption rate constant” value is 0.81 h⁻¹. Also, the “Reported concomitant effects (signs and symptoms)” value on erythrocyte AChE [2] (0.04 mg/kg BW (3 mg), first dose of repeated exposure study, male volunteers, ref APVMA. 2000 (original data of Hunter et al. 1972)) is “No toxic signs was observed”; on erythrocyte AChE [2] (setting [5]), “no toxic signs”. At erythrocyte AChE [2] (setting [5]), the “Erythrocyte AChE inhibition” value is 40%. In addition, the “Reported erythrocyte AChE activity/inhibition” value at erythrocyte AChE [2] (setting [5]) was “Decreased erythrocyte AChE”. In addition, the “reported or expected adverse health outcome” value was “negative” on erythrocyte AChE [2] (human, single oral 0.04 mg/kg BW, 0.04 mg/kg); “No” at erythrocyte AChE [2] (human, single oral 0.04 mg/kg BW, listed as Chlorfenvinphos, 0.04 mg/kg); “No” on erythrocyte AChE [2] (human, single oral 1 mg/kg BW, listed as Chlorfenvinphos, 1 mg/kg). For the same compound, the “calculated DCR value” is listed as 3.8 × 10^–3 on erythrocyte AChE [3] (single oral 0.04 mg/kg BW) and 0.098 at erythrocyte AChE [3] (single oral 1 mg/kg BW). Further, the “calculated EARtest value” on erythrocyte AChE [3] (single oral 0.04 mg/kg BW) is on record as 1.5 × 10^–4; at erythrocyte AChE [3] (single oral 0.18 mg/kg BW), 6.8 × 10^–4; on erythrocyte AChE [3] (single oral 1 mg/kg BW), 3.9 × 10^–3.
With `CCOP(=O)(OCC)Oc1nc(Cl)c(Cl)cc1Cl` [chlorpyrifos oxon], on erythrocyte AChE [3] (BMCL05/IC50 of chlorpyrifos oxon), the EARcomparator is 0.039. Also, at erythrocyte AChE [4] (setting [6]), the “BMCL05 (lower 95% confidence limit of benchmark concentration for 5% erythrocyte AChE inhibition)” value is 0.015 µM and the “BMCU05 (upper 95% confidence limit of benchmark concentration for 5% erythrocyte AChE inhibition)” value turned out to be 0.10 µM.
Turning to `CCOP(=S)(OCC)Oc1nc(Cl)c(Cl)cc1Cl` [chlorpyrifos], the “Oral absorption rate constant” value in data set [1] is 1.01 h⁻¹. For the same compound, the “no-observed-adverse-effect level (NOAEL) for toxic signs and symptoms” value on erythrocyte AChE [2] (human volunteers, fasted overnight, single oral dose) is reported as 2 mg/kg BW. Also, on erythrocyte AChE [2] (human, in vivo, po, 2 mg/kg), the “inhibition of erythrocyte AChE” value is reported as 28%. Also, the “Erythrocyte AChE inhibition” value on erythrocyte AChE [2] (human, in vivo) was 28%. In addition, the “reported or expected adverse health outcome” value at erythrocyte AChE [2] (human, single oral 0.01 mg/kg BW, 0.01 mg/kg) is given as “negative”; at erythrocyte AChE [2] (human, single oral 0.01 mg/kg BW, listed as Chlorpyrifos, 0.01 mg/kg), “No”; on erythrocyte AChE [2] (human, single oral 0.012 mg/kg BW, 0.012 mg/kg) it was “negative”; at erythrocyte AChE [2] (human, single oral 0.012 mg/kg BW, listed as Chlorpyrifos, 0.012 mg/kg), “No”; at erythrocyte AChE [2] (human, single oral 0.03 mg/kg BW, 0.03 mg/kg), “negative”; on erythrocyte AChE [2] (human, single oral 0.03 mg/kg BW, listed as Chlorpyrifos, 0.03 mg/kg), “No”. In addition, the “reported or expected adverse health outcome” value is “negative” at erythrocyte AChE [2] (human, single oral 0.1 mg/kg BW, 0.1 mg/kg); “No” on erythrocyte AChE [2] (human, single oral 0.1 mg/kg BW, listed as Chlorpyrifos, 0.1 mg/kg); “negative” at erythrocyte AChE [2] (human, single oral 0.5 mg/kg BW, 0.5 mg/kg); “No” at erythrocyte AChE [2] (human, single oral 0.5 mg/kg BW, listed as Chlorpyrifos, 0.5 mg/kg); “negative” at erythrocyte AChE [2] (human, single oral 1 mg/kg BW, 1 mg/kg); “No” on erythrocyte AChE [2] (human, single oral 1 mg/kg BW, listed as Chlorpyrifos, 1 mg/kg). Also, the “reported or expected adverse health outcome” value at erythrocyte AChE [2] (human, single oral 2 mg/kg BW, listed as Chlorpyrifos, 2 mg/kg) was “No”; at erythrocyte AChE [2] (human, single oral 214 mg/kg BW, 214 mg/kg), “positive”; at erythrocyte AChE [2] (human, single oral 214 mg/kg BW, listed as Chlorpyrifos, 214 mg/kg), “Yes”; at erythrocyte AChE [2] (human, single oral 300 mg/kg BW, 300 mg/kg) it was “positive”; at erythrocyte AChE [2] (human, single oral 300 mg/kg BW, listed as Chlorpyrifos, 300 mg/kg), “Yes”. In addition, the “calculated DCR value” is given as 4.6 × 10^–3 on erythrocyte AChE [3] (single oral 0.01 mg/kg BW); 0.014 at erythrocyte AChE [3] (single oral 0.03 mg/kg BW); 0.046 on erythrocyte AChE [3] (single oral 0.1 mg/kg BW); 0.23 at erythrocyte AChE [3] (single oral 0.5 mg/kg BW); 0.48 at erythrocyte AChE [3] (single oral 1 mg/kg BW); 1.0 at erythrocyte AChE [3] (single oral 2 mg/kg BW). Further, the “calculated DCR value” on erythrocyte AChE [3] (single oral 214 mg/kg BW) is given as 38; on erythrocyte AChE [3] (single oral 300 mg/kg BW), 40. Besides, the “calculated EARtest value” was 1.8 × 10^–4 at erythrocyte AChE [3] (single oral 0.01 mg/kg BW); 2.2 × 10^–4 at erythrocyte AChE [3] (single oral 0.012 mg/kg BW); 5.4 × 10^–4 at erythrocyte AChE [3] (single oral 0.03 mg/kg BW); 1.8 × 10^–3 on erythrocyte AChE [3] (single oral 0.1 mg/kg BW); 9.2 × 10^–3 on erythrocyte AChE [3] (single oral 0.5 mg/kg BW); 0.019 at erythrocyte AChE [3] (single oral 1 mg/kg BW). Also, the entries for the “calculated EARtest value” on erythrocyte AChE [3] (single oral 2 mg/kg BW), at erythrocyte AChE [3] (single oral 214 mg/kg BW) and at erythrocyte AChE [3] (single oral 300 mg/kg BW) were 0.040, 1.50 and 1.58, respectively.
In general, IC50 refers to the midpoint of a concentration-inhibition curve. A lower IC50 goes with greater potency. On erythrocyte AChE [4], `CCOP(=O)(OCC)Oc1cc(C)nc(C(C)C)n1` [diazoxon] registered an IC50 of 1820 nM.
In the case of `COP(=S)(OC)Oc1ccc([N+](=O)[O-])cc1` [methyl parathion], the “Oral absorption rate constant” value in data set [1] was 0.58 h⁻¹. Besides, the reported blood concentration at erythrocyte AChE [2] (286 mg/kg BW (20 g) acute oral, person, ref Luzhnikov et al. 1977) is reported as 3 mg/L. For the same compound, the “reported or expected adverse health outcome” value is recorded as “negative” at erythrocyte AChE [2] (human, single oral 0.003 mg/kg BW, 0.003 mg/kg); “No” on erythrocyte AChE [2] (human, single oral 0.003 mg/kg BW, listed as Methyl parathion, 0.003 mg/kg); “negative” at erythrocyte AChE [2] (human, single oral 0.029 mg/kg BW, 0.029 mg/kg); “No” at erythrocyte AChE [2] (human, single oral 0.029 mg/kg BW, listed as Methyl parathion, 0.029 mg/kg); “negative” on erythrocyte AChE [2] (human, single oral 0.057 mg/kg BW, 0.057 mg/kg); “No” at erythrocyte AChE [2] (human, single oral 0.057 mg/kg BW, listed as Methyl parathion, 0.057 mg/kg). The “reported or expected adverse health outcome” value at erythrocyte AChE [2] (human, single oral 0.30 mg/kg BW, 0.3 mg/kg) is reported as “negative”; at erythrocyte AChE [2] (human, single oral 0.30 mg/kg BW, listed as Methyl parathion, 0.3 mg/kg), “No”; at erythrocyte AChE [2] (human, single oral 26 mg/kg BW, 26 mg/kg), “positive”; at erythrocyte AChE [2] (human, single oral 26 mg/kg BW, listed as Methyl parathion, 26 mg/kg) it was “Yes”. The “calculated DCR value” at erythrocyte AChE [3] (single oral 0.003 mg/kg BW) is given as 0.092; on erythrocyte AChE [3] (single oral 0.029 mg/kg BW) it was 0.89; at erythrocyte AChE [3] (single oral 0.057 mg/kg BW), 1.8; on erythrocyte AChE [3] (single oral 0.30 mg/kg BW) it was 9.2; at erythrocyte AChE [3] (single oral 26 mg/kg BW), 927. In addition, the “calculated EARtest value” on erythrocyte AChE [3] (single oral 0.003 mg/kg BW) is 3.6 × 10^–3; at erythrocyte AChE [3] (single oral 0.029 mg/kg BW), 0.035; on erythrocyte AChE [3] (single oral 0.057 mg/kg BW), 0.069; at erythrocyte AChE [3] (single oral 0.30 mg/kg BW) it was 0.36; at erythrocyte AChE [3] (single oral 26 mg/kg BW), 36.59.
